One test concerns the target T1, Mer (Homo sapiens, UniProt Q12866).
T1 construct: purchased Life Technologies
T1 sequence (Q12866 21-999): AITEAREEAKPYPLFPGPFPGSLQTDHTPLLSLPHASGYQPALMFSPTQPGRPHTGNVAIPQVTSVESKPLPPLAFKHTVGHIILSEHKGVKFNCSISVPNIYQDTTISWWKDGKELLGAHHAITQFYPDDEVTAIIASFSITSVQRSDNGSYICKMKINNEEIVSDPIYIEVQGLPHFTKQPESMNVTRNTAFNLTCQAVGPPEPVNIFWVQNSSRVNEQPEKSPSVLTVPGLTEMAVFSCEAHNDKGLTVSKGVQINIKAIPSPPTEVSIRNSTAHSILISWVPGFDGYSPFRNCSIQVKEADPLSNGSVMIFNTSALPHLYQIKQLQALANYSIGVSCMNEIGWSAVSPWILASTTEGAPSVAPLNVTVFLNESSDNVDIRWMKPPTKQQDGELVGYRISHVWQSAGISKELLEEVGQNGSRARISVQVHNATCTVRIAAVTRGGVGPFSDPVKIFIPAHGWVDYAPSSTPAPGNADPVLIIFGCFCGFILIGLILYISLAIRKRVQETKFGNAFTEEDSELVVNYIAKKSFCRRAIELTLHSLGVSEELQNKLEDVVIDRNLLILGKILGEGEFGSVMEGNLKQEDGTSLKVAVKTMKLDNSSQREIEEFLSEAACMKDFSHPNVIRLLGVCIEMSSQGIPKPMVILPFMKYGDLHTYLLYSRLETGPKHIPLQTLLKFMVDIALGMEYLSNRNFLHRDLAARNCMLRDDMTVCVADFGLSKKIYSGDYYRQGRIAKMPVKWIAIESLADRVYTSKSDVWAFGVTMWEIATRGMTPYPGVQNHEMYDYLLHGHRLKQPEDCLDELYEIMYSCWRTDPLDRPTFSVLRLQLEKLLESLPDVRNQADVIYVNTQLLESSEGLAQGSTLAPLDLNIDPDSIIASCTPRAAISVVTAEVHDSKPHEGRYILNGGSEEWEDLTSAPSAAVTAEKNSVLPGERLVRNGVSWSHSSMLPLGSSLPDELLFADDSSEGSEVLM
Briefly: LanthaScreen Eu kinase binding assay, Mer. As to conditions: Tracer 236. On the technique in general: In TR-FRET formats the signal depends on donor and acceptor labels being close together.

The subject of test [1] is Axl phosphorylation in transiently transfected HEK293T cells. The test is described as follows: Cellular Axl phosphorylation assay. The format is cell-based. The conditions noted are these: Homo sapiens, HEK-293T; HEK293T cells transfected with Axl, 1 hour compound treatment, Phospho-Axl vs Total-Axl. In outline:
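HEK293T cells transiently transfected with Axl (empty pcDNA_DEST_40 vector as minimum control) were treated with compound in DMSO for 1 h, then lysed. Total and phospho-Axl in lysates were measured by Mesoscale electrochemiluminescence immunoassay. IC50 was taken relative to the DMSO vehicle and empty-vector controls.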

Consider `CCOc1cn(-c2ccc(F)cc2C)nc1C(=O)Nc1ccc(Oc2ccnc3cc(OC)c(OC)cc23)c(Cl)c1` [Compound 82], for which the Kd (in general, the free concentration of one partner at which half of the binding sites on the other are occupied at equilibrium, for simple one-to-one binding) at Mer was less than 100 nM. The IC50 (commonly the midpoint of a concentration-inhibition curve) in test [1] was less than 100 nM.
`CCOc1cn(C2CCCC2)nc1C(=O)Nc1ccc(Oc2ccnc3cc(OC)c(OC)cc23)cn1` [Compound 3] yielded a Kd at Mer of less than 100 nM. Also, the IC50 in test [1] was less than 100 nM.
On Mer, `CCOc1cn(-c2cccnn2)nc1C(=O)Nc1ccc(Oc2ccnc3cc(OC)c(OC)cc23)cn1` [Compound 5] registered a Kd of less than 100 nM. Besides, in test [1], the IC50 is less than 100 nM.
Regarding `CCOc1cn(-c2ccc(F)cc2)nc1C(=O)Nc1ccc(Oc2ccnc3cc(OC)c(OC)cc23)cn1` [Compound 89], the Kd at Mer was less than 100 nM. In test [1], this compound yielded an IC50 of less than 100 nM.
On Mer, `CCOc1cn(-c2cnccc2C)nc1C(=O)Nc1ccc(Oc2ccnc3cc(OC)c(OC)cc23)cn1` [Compound 79] came in with a Kd of less than 100 nM. In test [1], the IC50 is less than 100 nM.
`CCOc1cn(-c2ccccn2)nc1C(=O)Nc1ccc(Oc2ccnc3cc(OC)c(OC)cc23)cn1` [Compound 4] came in with a Kd at Mer of less than 100 nM. Moreover, the IC50 in test [1] was less than 100 nM.
On Mer, `CCOc1cn(C(C)CC#N)nc1C(=O)Nc1ccc(Oc2ccnc3cc(OC)c(OC)cc23)cn1` (stereo not shown) [Compound 81] showed a Kd of less than 100 nM. The compound further displayed a half-inhibitory concentration (IC50) in test [1] of less than 100 nM.
At Mer, `CCOc1cn(CCC#N)nc1C(=O)Nc1ccc(Oc2ccnc3cc(OC)c(OC)cc23)cn1` [Compound 80] displayed an equilibrium dissociation constant (Kd) of less than 100 nM. Moreover, the IC50 in test [1] was less than 100 nM.
In the case of `CCOc1cn(-c2ccc(Cl)cc2C)nc1C(=O)Nc1ccc(Oc2ccnc3cc(OC)c(OC)cc23)cn1` [Compound 87], the Kd at Mer was less than 100 nM. The same compound returned an IC50 in test [1] of less than 100 nM.
`CCOc1cn(-c2cccnc2)nc1C(=O)Nc1ccc(Oc2ccnc3cc(OC)c(OC)cc23)cc1F` [Compound 85] registered a Kd on Mer of less than 100 nM. The compound also showed an IC50 in test [1] of less than 100 nM.
On Mer, `CCOc1cn(CCOC(F)F)nc1C(=O)Nc1ccc(Oc2ccnc3cc(OC)c(OC)cc23)cn1` [Compound 86] gave a dissociation constant (Kd) of less than 100 nM. In test [1], this compound gave an IC50 of less than 100 nM.
`CCOc1cn(C2CCOC2)nc1C(=O)Nc1ccc(Oc2ccnc3cc(OC)c(OC)cc23)cn1` (stereo not shown) [Compound 76] gave a Kd on Mer of less than 100 nM. This compound yielded an IC50 in test [1] of less than 100 nM.
Regarding `CCOc1cn(-c2c(C)cc(OC)cc2C)nc1C(=O)Nc1ccc(Oc2ccnc3cc(OC)c(OC)cc23)cn1` [Compound 92], at Mer, the Kd was less than 100 nM. In test [1], this compound gave an IC50 of less than 100 nM.
For the compound `CCOc1cn(-c2ncc(N)cn2)nc1C(=O)Nc1ccc(Oc2ccnc3cc(OC)c(OC)cc23)cn1` [Compound 93], the Kd on Mer is less than 100 nM. The same compound came in with an IC50 in test [1] of less than 100 nM.

The values above are taken from patent US10934274B2, “Quinoline derivatives as TAM RTK inhibitors” (Qurient Co., Ltd., priority 2015, dated 2021).
